Source: patent US20160264570A1, “METHOD OF BLOCKING TRANSMISSION OF MALARIAL PARASITE” (THE UNITED STATES OF AMERICA, AS REPRESENTED BY THE …, priority 2013, published 2016)
Read-outs that look alike come from different tables or passages of the source. Starred links: 1 amine or outer side, 2 acyl side, 3 side chain; linkers in the order of their positions; H or OH if unused. Positions of bridges follow the written chain, without caps; N, C: chain ends. Non-standard residues stand in square brackets, D forms with d. Residues, ends and D or L forms follow the SMILES beside them. Chains are numbered I, II in the order given. Actinocin(9to1) = Cc1c2oc3c(C)ccc(C(=O)[*:1])c3nc-2c(C(=O)[*:2])c(N)c1=O; NMeV = CN[C@H](C(=O)O)C(C)C; Sar = CNCC(=O)O

Tests used:
[1] = test system: Asexual parasites of P. falciparum strain 3D7; experiment: SYBR Green viability assay on asexual parasites; type: cell-based, Plasmodium falciparum; details: for EC50: read-out: Activity against asexual parasites EC50
[2] = test system: P. falciparum strain 3D7 gametocytes; experiment: alamarBlue gametocyte viability assay, strain 3D7; details: for EC50: read-out: Gametocytocidal activity EC50
HepG2 cells = experiment: Cytotoxicity in mammalian HepG2 cell line; details: for % Max response: HepG2; for Emax: HepG2, read-out: % Max response
[3] = test system: P. falciparum strain HB3 gametocytes; experiment: alamarBlue gametocyte viability assay, strain HB3
[4] = test system: P. falciparum strain Dd2 gametocytes; experiment: alamarBlue gametocyte viability assay, strain Dd2
[5] = Table 2, Inactive = no significant activity at highest tested concentration (46 μM)
[6] = Table 4, Inactive = no significant activity at highest tested concentration (46 μM)
[7] = read-out: 3D7-IC50, Table 3, 11 concentrations, 1:3 dilution, three times
[8] = read-out: Gametocyte IC50, mean of at least 3 independent experiments, P. falciparum 3D7 gametocyte
[9] = read-out: HB3-IC50, Table 3, 11 concentrations, 1:3 dilution, three times
[10] = read-out: Dd2-IC50, Table 3, 11 concentrations, 1:3 dilution, three times
[11] = read-out: IC50 (μM) in HepG2, Table 2, Inactive = no significant activity at highest tested concentration (46 μM)
[12] = read-out: IC50 (μM) in HepG2 cells, Table 4, Inactive = no significant activity at highest tested concentration (46 μM)
[13] = Homo sapiens, HepG2, read-out: IC50 (μM) in HepG2 cells
[14] = Plasmodium falciparum, 3D7, read-out: 3D7-IC50
[15] = Plasmodium falciparum, HB3, read-out: HB3-IC50
[16] = Plasmodium falciparum, HB3, read-out: HB3-IC50, Table 3, 11 concentrations, 1:3 dilution, three times
[17] = Plasmodium falciparum, DD2, read-out: Dd2-IC50
[18] = Plasmodium falciparum, 3D7, read-out: Gametocyte IC50
[19] = Homo sapiens, HepG2, read-out: IC50 (μM) in HepG2

Structure (SMILES): O=c1ccc2cnc3ccc(-c4ccncc4)cc3c2n1-c1cccc(C(F)(F)F)c1
- EC50 ([1]; Table 6): 92 nM
- EC50 ([2]; Table 6): 246 nM

Structure (SMILES): Nc1ncc(-c2ccc3ncc4ccc(=O)n(-c5cccc(C(F)(F)F)c5)c4c3c2)cn1
- EC50 ([1]; Table 6): 22 nM
- EC50 ([2]; Table 6): 40 nM

Structure (SMILES): Nc1ccc(-c2ccc3ncc4ccc(=O)n(C5CCOCC5)c4c3c2)cn1
- EC50 ([1]; Table 6): 1340 nM
- EC50 ([2]; Table 6): 41 nM

Structure (SMILES): Nc1ccc(-c2ccc3ncc4ccc(=O)n(C5CCCCC5)c4c3c2)cn1
- EC50 ([1]; Table 6): 707 nM
- EC50 ([2]; Table 6): 676 nM

Structure (SMILES): Nc1ccc(-c2ccc3ncc4ccc(=O)n(C5CCCC5)c4c3c2)cn1
- EC50 ([1]; Table 6): 882 nM
- EC50 ([2]; Table 6): 1260 nM

Structure (SMILES): O=c1ccc2cnc3ccc(-c4cccc(C(F)(F)F)c4)cc3c2n1-c1cccc(C(F)(F)F)c1
- EC50 ([1]; Table 6): 4200 nM
- EC50 ([2]; Table 6): 3380 nM

Structure (SMILES): O=c1ccc2cnc3ccc(Br)cc3c2n1-c1cccc(C(F)(F)F)c1
- EC50 ([1]; Table 6): 5580 nM
- EC50 ([2]; Table 6): 4950 nM

Structure (SMILES): Nc1cccc(-c2ccc3ncc4ccc(=O)n(-c5cccc(C(F)(F)F)c5)c4c3c2)c1
- EC50 ([1]; Table 6): 120 nM
- EC50 ([2]; Table 6): 103 nM

Structure (SMILES): CN(C)c1cccc(-c2ccc3ncc4ccc(=O)n(-c5cccc(C(F)(F)F)c5)c4c3c2)c1
- EC50 ([1]; Table 6): 3250 nM
- EC50 ([2]; Table 6): 3290 nM

Structure (SMILES): C=Cc1ccc2ncc3ccc(=O)n(-c4cccc(C(F)(F)F)c4)c3c2c1
- EC50 ([1]; Table 6): 3240 nM
- EC50 ([2]; Table 6): 4900 nM

Structure (SMILES): NC(=O)c1ccc(-c2ccc3ncc4ccc(=O)n(-c5cccc(C(F)(F)F)c5)c4c3c2)cc1
- EC50 ([1]; Table 6): 1060 nM
- EC50 ([2]; Table 6): 1270 nM

Structure (SMILES): N#Cc1cccc(-c2ccc3ncc4ccc(=O)n(-c5cccc(C(F)(F)F)c5)c4c3c2)c1
- EC50 ([1]; Table 6): 283 nM
- EC50 ([2]; Table 6): 526 nM

Structure (SMILES): CCN(CCO)CCCOc1ccc2c(Nc3cc(CC(=O)Nc4cccc(F)c4)[nH]n3)ncnc2c1 [AZD-1152-HQPA]
- % Max response (HepG2 cells; Table 2): 11%
- IC50 (μM) in HepG2 (HepG2 cells; [5]): Inactive
- % Max response (HepG2 cells; Table 4): 11%
- IC50 (μM) in HepG2 cells (HepG2 cells; [6]): Inactive
- IC50 [2, 7]: 743 nM
- IC50 [2, 8]: 743 nM
- IC50 [3, 9]: 1480 nM
- IC50 [4, 10]: 1480 nM

Structure (SMILES): CC(=O)OC[C@H]1O[C@@H]([S-])[C@H](OC(C)=O)[C@@H](OC(C)=O)[C@@H]1OC(C)=O.CCP(CC)CC.[Au+] [Auranofin]
- % Max response (HepG2 cells; Table 2): −98%
- % Max response (HepG2 cells; Table 4): −98%
- IC50 (HepG2 cells; [11]): 9.35 µM
- IC50 (HepG2 cells; [12]): 9.35 µM
- IC50 [2, 7]: 935 nM
- IC50 [2, 8]: 935 nM
- IC50 [3, 9]: 1050 nM
- IC50 [4, 10]: 1180 nM

Structure (SMILES): CC1(C)OC2=C(C(=O)c3ccccc3C2=O)[C@H](NCc2ccccc2)[C@@H]1O [CAY10581]
- % Max response (HepG2 cells; Table 2): −86%
- % Max response (HepG2 cells; Table 4): −86%
- IC50 (HepG2 cells; [11]): 17.1 µM
- IC50 (HepG2 cells; [12]): 17.1 µM
- IC50 [2, 7]: 743 nM
- IC50 [2, 8]: 743 nM
- IC50 [3, 9]: 662 nM
- IC50 [4, 10]: 2350 nM

Structure (SMILES): C#Cc1cccc(Nc2ncnc3cc(OC)c(OCCCCCCC(=O)NO)cc23)c1 [CUDC-101]
- IC50 (HepG2 cells; [13]): 6.79 µM
- % Max response (HepG2 cells; Table 4): −76%
- IC50 [2, 14]: 800 nM
- IC50 [3, 15]: 152 nM
- fold more potent against HB3 compared to 3D7 ([3]; gametocytes): 5.5 fold

Structure (SMILES): CNc1ccc2oc(C[C@H]3O[C@@]4(CC[C@H]3C)O[C@H]([C@H](C)C(=O)c3ccc[nH]3)[C@H](C)C[C@H]4C)nc2c1C(=O)O [Calcimycin]
- IC50 [2, 14]: 2640 nM
- IC50 [3, 16]: 5900 nM

Structure (SMILES): CCN(CC)CCCC(C)Nc1ccnc2cc(Cl)ccc12 (stereo not shown) [Chloroquine diphosphate]
- IC50 [2, 14]: 200 nM
- IC50 [3, 15]: 935 nM
- IC50 [4, 17]: 935 nM

Structure (SMILES): Cc1cc(NC2CCCCC2)nc(-n2nc(C)cc2C)n1 [CyPPA]
- IC50 [2, 7]: 469 nM
- IC50 [3, 9]: 743 nM
- IC50 [4, 10]: 590 nM

Structure (SMILES): Cc1c2oc3c(C)ccc(C(=O)N[C@@H]4C(=O)N[C@H](C(C)C)C(=O)N5CCC[C@H]5C(=O)N(C)CC(=O)N(C)[C@@H](C(C)C)C(=O)O[C@@H]4C)c3nc-2c(C(=O)N[C@@H]2C(=O)N[C@H](C(C)C)C(=O)N3CCC[C@H]3C(=O)N(C)CC(=O)N(C)[C@@H](C(C)C)C(=O)O[C@@H]2C)c(N)c1=O [Dactinomycin] (I: T[dV]P[Sar][NMeV] / II: T[dV]P[Sar][NMeV]; ester I:1-I:C, II:1-II:C; linker I:N-II:N via Actinocin(9to1))
- Emax (HepG2 cells; Homo sapiens): 1%
- IC50 (μM) in HepG2 (HepG2 cells; [5]): Inactive
- IC50 (μM) in HepG2 cells (HepG2 cells; [6]): Inactive
- IC50 [2, 18]: 15 nM
- IC50 [3, 15]: 19 nM
- IC50 [4, 17]: 33 nM

Structure (SMILES): S=C(SSC(=S)N1CCCCC1)N1CCCCC1 [Dicyclopentamethylenethiuram]
- IC50 [2, 7]: 200 nM
- IC50 [3, 9]: 743 nM
- IC50 [4, 10]: 743 nM

Structure (SMILES): CCN(CC)Cc1nccn1-c1ccc([N+](=O)[O-])cc1C(=O)c1ccccc1Cl [Nizofenone]
- IC50 [2, 14]: 23500 nM
- IC50 [3, 16]: 14800 nM

Structure (SMILES): COc1cc(NC(C)CCCN)c2ncccc2c1 (stereo not shown) [Primaquine diphosphate]
- IC50 [3, 15]: 679 nM
- IC50 [4, 17]: 1080 nM

Structure (SMILES): COc1cc(NC(C)CCCN)c2ncccc2c1 (stereo not shown) [Primaquine, primaquine]
- IC50 (HepG2 cells; [13]): 17.8 µM
- IC50 ([3]; Plasmodium falciparum, HB3, read-out: IC50 against HB3 gametocytes): 680 nM
- IC50 ([4]; Plasmodium falciparum, DD2, read-out: IC50 against Dd2 gametocytes): 1080 nM

Structure (SMILES): C/C=C1\NC(=O)[C@H]2CSSCC/C=C/[C@H](CC(=O)N[C@H](C(C)C)C(=O)N2)OC(=O)[C@H](C(C)C)NC1=O [Romidepsin]
- Emax (HepG2 cells; Homo sapiens): -98%
- IC50 (HepG2 cells; [19]): 0.074 µM
- IC50 (HepG2 cells; [13]): 0.074 µM
- IC50 [2, 14]: 200 nM
- IC50 [2, 18]: 637 nM
- IC50 [3, 16]: 148 nM

Structure (SMILES): Cl.Cl.Cl.Cl.Cl.Cl.N.N.N.N.N.N.N.N.N.N.N.N.N.N.[O-2].[O-2].[Ru+3].[Ru+3].[Ru+4] [Ruthenium red]
- IC50 [2, 7]: 935 nM
- IC50 [3, 9]: 264 nM
- IC50 [4, 10]: 526 nM

Structure (SMILES): CC[C@@H](C(=O)[C@@H](C)[C@@H](O)[C@H](C)[C@@H]1O[C@@H]([C@@H](CC)C(=O)O)CC[C@@H]1C)[C@H]1O[C@]2(C=C[C@@H](O)[C@]3(CC[C@@](C)([C@H]4CC[C@](O)(CC)[C@H](C)O4)O3)O2)[C@H](C)C[C@@H]1C [Salinomycin monosodium]
- IC50 [2, 7]: 100 nM
- IC50 [3, 9]: 469 nM
- IC50 [4, 10]: 296 nM

Structure (SMILES): CC[C@@H](C(=O)[C@@H](C)[C@@H](O)[C@H](C)[C@@H]1O[C@@H]([C@@H](CC)C(=O)O)CC[C@@H]1C)[C@H]1O[C@]2(C=C[C@@H](O)[C@]3(CC[C@@](C)([C@H]4CC[C@](O)(CC)[C@H](C)O4)O3)O2)[C@H](C)C[C@@H]1C [Salinomycin sodium]
- Emax (HepG2 cells; Homo sapiens): -69%
- IC50 (HepG2 cells; [19]): 29.6 µM
- IC50 (HepG2 cells; [13]): 29.6 µM
- IC50 [2, 14]: 100 nM
- IC50 [2, 18]: 194 nM
- IC50 [3, 16]: 372 nM

Structure (SMILES): CCN(CC)C(=S)SSC(=S)N(CC)CC [Tetraethylthiuram disulfide]
- IC50 [3, 15]: 148 nM
- IC50 [4, 17]: 296 nM

Structure (SMILES): CCC(=O)N1CCN(c2ccc(-n3c(=O)ccc4cnc5ccc(-c6cnc7ccccc7c6)cc5c43)cc2C(F)(F)F)CC1 [Torin 1, reference compound]
- times less potent than Torin 2 against asexual parasites [1]: 78 times
- IC50 ([1]; read-out: IC50 in viability assay using asexual parasites): 215 nM
- IC50 ([2]; read-out: IC50 against 3D7 gametocytes): 1600 nM

Structure (SMILES): CCC(=O)N1CCN(c2ccc(-n3c(=O)ccc4cnc5ccc(-c6cnc7ccccc7c6)cc5c43)cc2C(F)(F)F)CC1 [Torin-1]
- IC50 [2, 7]: 6620 nM
- IC50 [3, 9]: 3720 nM
- IC50 [4, 10]: 5260 nM

Structure (SMILES): Nc1ccc(-c2ccc3ncc4ccc(=O)n(-c5cccc(C(F)(F)F)c5)c4c3c2)cn1 [drawing 333]
- EC50 ([1]; Table 6): 6 nM
- EC50 ([2]; Table 6): 18 nM

Structure (SMILES): Cn1c(=O)n(-c2cccc(C(F)(F)F)c2)c2c3cc(-c4cccc(C#N)c4)ccc3ncc21 [drawing 455]
- EC50 ([1]; Table 7): 546 nM
- EC50 ([2]; Table 7): 2820 nM

Structure (SMILES): Cn1c(=O)n(-c2cccc(C(F)(F)F)c2)c2c3cc(-c4cccc(C#N)c4)ccc3ncc21 [drawing 462]
- EC50 ([1]; Table 7): 59 nM
- EC50 ([2]; Table 7): 314 nM
